Calls of active or inactive are those of the source. The rule behind the calls is not given here.
Tests used:
A549 = assay: Cytotoxicity against human A549 cells up to 50 uM by SRB assay; type: cell-based
HeLa = assay: Cytotoxicity against human HeLa cells up to 50 uM by SRB assay; type: cell-based
SMMC-7721 = assay: Cytotoxicity against human SMMC7721 cells up to 50 uM by SRB assay; type: cell-based
HepG2 = assay: Lipid lowering activity in human HepG2 cells assessed as decrease in oleic acid elicited lipid accumulation after 6 hrs by oil-red O staining method; type: functional, cell-based; details: HepG2, 6 h
[1] = Antifouling activity against Bugula neritina by settlement inhibition assay; type: functional
Laribacter hongkongensis = assay: Antibacterial activity against Laribacter hongkongensis by disc diffusion assay; type: functional
Micrococcus luteus = assay: Antibacterial activity against Micrococcus luteus by disc diffusion assay; type: functional, organism-based
uncultured Ruegeria sp. = assay: Antibacterial activity against Ruegeria sp. by disc diffusion assay; type: functional
Amphibalanus amphitrite = assay: Antifouling activity against Balanus amphitrite by settlement inhibition assay; type: functional, organism-based

| Compound | Activity (A549) | Activity (HeLa) | Activity (SMMC-7721) | IC50 (HepG2) | Activity [1] | Activity (Laribacter hongkongensis) | Activity (Micrococcus luteus) | Activity (uncultured Ruegeria sp.) | Activity (Amphibalanus amphitrite) |
| --- | --- | --- | --- | --- | --- | --- | --- | --- | --- |
| C[C@@H](O)CCCCCC[C@H]1OC(=O)C[C@@H]1O | Non-toxic | Non-toxic | Non-toxic |  |  |  |  |  |  |
| CC[C@H](C)C(=O)O[C@H]1C[C@@H](C)C=C2C=C[C@H](C)[C@H](CC[C@@H]3C[C@@H](O)CC(=O)O3)[C@H]21 [LOVASTATIN] |  |  |  | 8.3 µM |  |  |  |  |  |
| C[C@@H](O)CCCCC[C@H](O)[C@@H]1C=CC(=O)O1 | Non-toxic | Non-toxic | Non-toxic |  | inactive | inactive | inactive | inactive | inactive |

From ChEMBL document CHEMBL3603796, “Lipid-lowering polyketides from a soft coral-derived fungus Cladosporium sp. TZP29” (Bioorg Med Chem Lett, 2015)
